Assay results published in patent US20050277600A1, “Compositions and methods of use of dimer digallates” (Mars, Incroporated, priority 2004, published 2005).

Assays:
[1] = test system: human umbilical vein endothelial cell (HUVEC) NO production; test: HUVEC NO production (NOx in cell culture medium, chemiluminescence); format: cell-based; conditions: for HUVEC Cells NOx, 24 hr / HUVEC Cells NOx, 5 d / HUVEC Cells NOx, 2 hr: Table 2 summary
Experimental: Several compounds were investigated for their effect on nitric oxide (NO) production and vasorelaxation using serum-free human umbilical vein endothelial cell (HUVEC) culture system in vitro and rabbit aortic ring model ex vivo, respectively. NO production by endothelial cells and relaxation of pre-constricted aortic rings are two main markers for evaluating vascular effects of test compounds.
HUVECs obtained from a single donor were cultured in serum free, low protein (0.5 g/l), antibiotic-free cell culture medium supplemented with essential growth factors, nutrients and minerals. […] The cell culture medium was substituted with apo-transferrin, superoxide dismutase, and catalase to exclude secondary effects of test compounds involving their auto-oxidation mediated hydrogen peroxide formation.
NO production was evaluated by measuring the total amount of all major nitric oxide end products (NOx, including nitrate, nitrite, nitrosothiols) present in the cell culture medium. […] The amount of NO released from the culture medium was subsequently evaluated by measuring the chemiluminescence emitted during the stoichiometrical reaction between ozone and NO using a NO Analyzer (Sievers Instruments, Inc. Boulder, Colo.).
The data presented herein were obtained from three experiments and were expressed as the concentration of NO present (in μmol/l) (as NOx) in the cell culture medium+/−standard deviation (SD). The data were corrected for the NOx intrinsically present in the fully supplemented cell culture medium and normalized with respect to the volume of media from which the sample was drawn. Data were analyzed using Student's t-test with a 95% level of confidence. P values equal to or less than 0.05 were defined as statistically significant.
For the acute effect test, HUVECs were incubated with the test compounds for 2 hours at concentrations of 100 nM, 1 μM, and 10 μM at 37° C. and 5% CO2. […] (FIG. 1)
For the chronic effect test, HUVECs were incubated with 5 subsequent doses of test compounds, each for 24 hours. After each 24 hour treatment, culture medium was replaced.
For the acute effect test, HUVECs were incubated with a single dose of the test compounds for 24 hours at concentrations of 100 nM, 1 μM, and 10 μM at 37° C. and 5% CO2.

[2] = test system: rabbit aortic rings; test: Relaxation of norepinephrine pre-constricted rabbit aortic rings ex vivo; conditions: for Max Relaxation: Experiment 3, 10 μM and 100 μM
Experimental: Several compounds were investigated for their effect on nitric oxide (NO) production and vasorelaxation using serum-free human umbilical vein endothelial cell (HUVEC) culture system in vitro and rabbit aortic ring model ex vivo, respectively. NO production by endothelial cells and relaxation of pre-constricted aortic rings are two main markers for evaluating vascular effects of test compounds. Effect of different procyanidins on endothelium-dependent relaxation was tested in an ex vivo experiment performed as previously described by Karim et al., J. Nutrl Suppl., 130 (8S): […]-[…] (2000), the relevant portions of which are hereby incorporated herein by reference. The advantage of using this method is that it assesses functional vascular end points. […] In summary, rabbit aortic rings were obtained from male New Zealand White rabbits. Following isolation, the rings were mounted in oxygenated Kreb's buffer, and pre-constricted with norepinephrine (NE) (10^-6 M). […] A positive control acetylcholine (10^-9 to 10^-4 M) and a negative control L-NAME were included in the experiment. Use of L-NAME, which is a NO synthase (NOS) inhibitor, allows for differentiating between endothelium dependent and endothelium independent relaxation events. […] The relaxation response was measured as a function of the decrease in the tension (g) exerted by the aortic rings over time […]. Data obtained were expressed as a percent relaxation of the norepinephrine (NE) constricted rings. The same statistical approach as described above was used. Dose response curves were obtained by plotting the average percent relaxation (+/-SE) against the concentrations used.

[3] = test system: HUVEC; test: HUVEC-mediated MTT reduction (toxic effects); conditions: for cell-mediated MTT reduction: 10 μM (20 μM for the Epicatechin gallates); for cell-mediated reduction of MTT: 1 μM
Experimental: Cell counts and total protein were used to assess intra-assay variation. Potential toxic effects of tested compounds were also monitored (MTT reduction was measured).

[4] = test system: human umbilical vein endothelial cell (HUVEC) NO production; test: HUVEC NO production (NOx in cell culture medium, chemiluminescence); format: cell-based; conditions: Experiment 1, 24 h after single dose, 1 mM (so in the source)
[5] = Experiment 2, single dose, 24 hours, 1 μM
[6] = Experiment 2, chronic, 5 x 24 hours
[7] = Experiment 2, single dose, 24 hours
[8] = Experiment 2, single dose, 24 hours, 10 μM
[9] = Experiment 1, 24 h after single dose, 10 μM
[10] = Experiment 1, acute, 2 hours incubation, 10 μM
[11] = Experiment 1, chronic, 5 subsequent 24 hour doses

| SMILES | NO production [1, 5] | HUVEC Cells NOx, 5 d [1] | Max Relaxation [2] | cell-mediated MTT reduction [3, 6] | cell-mediated reduction of MTT [3, 7] | NO production [1, 9] | modulation of NO production [1, 10] | modulation of NO production [1, 8] | HUVEC Cells NOx, 2 hr [1] | HUVEC Cells NOx, 24 hr [1] | NO production [4] | relaxation response, percent relaxation of NE constricted rings ([2]; Experiment 1, 10^−4 M) | relaxation response, percent relaxation of NE constricted rings ([2]; Experiment 1, 10^−5 M) | also measured |
| --- | --- | --- | --- | --- | --- | --- | --- | --- | --- | --- | --- | --- | --- | --- |
| O=C(O[C@H]1[C@@H](c2c(O)cc(O)c3c2O[C@H](c2ccc(O)c(O)c2)[C@H](OC(=O)c2cc(O)c(O)c(O)c2)C3)c2c(O)cc(O)cc2O[C@@H]1c1ccc(O)c(O)c1)c1cc(O)c(O)c(O)c1 [C-(4β→8)-EC digallate, (+)-Catechin-(4β,8)-(−)-Epicatechin Digallate] | statistically significant increases in NO production | No significant NOx increase; | 72% | significant decline of cell-mediated MTT reduction | no effect on cell-mediated reduction of MTT | – | – | – | – | – | – | – | – | HUVEC Cells NOx, 24 hr ([1]; 1 µM): 1 uM, sign. Incr. NOx; 10 uM,; HUVEC Cells NOx, 24 hr ([1]; 10 µM): no sign. effect on NOx, Cell; relaxation response, percent relaxation of NE constricted rings ([2]; Experiment 2, 10^−4 M): 72.4+/−17.4%; relaxation response ([2]; Experiment 2, 10^−5 M): 33.1%; loss of HUVEC MTT reduction as compared to controls [3, 8]: 47%; HUVEC Cells cell toxicity, 24 hr ([3]; Table 2 summary, 24 hr, 10 uM): toxicity |
| Oc1cc(O)c2c(c1)O[C@H](c1ccc(O)c(O)c1)[C@H](O)[C@H]2c1c(O)cc(O)c2c1O[C@H](c1ccc(O)c(O)c1)[C@@H](O)C2 [EC-(4β→8)-C, (−)-Epicatechin-(4β,8)-(+)-Catechin] | statistically significant increases in NO production | 10 uM, significant NOx | – | – | no effect on cell-mediated reduction of MTT | increased NO production | statically significant ability to modulate NO production | statistically significant ability to modulate NO production | 10 uM, sign. NOx | 1 uM and 10 uM, sign. Incr. in | increased NO production | 58.36+/−11.35% | 42.7+/−11.81% | HUVEC NO production ([1]; Experiment 2, chronic, 5 subsequent 24 hour doses): increase in NO production which was significantly lower as compared to single dose treatment; NO modulating effect after re-purification ([1]; re-purified compound (first lot contaminated with A1 dimer)): no longer exhibited the NO modulating effect |
| O=C(O[C@@H]1[C@@H](c2c(O)cc(O)c3c2O[C@H](c2ccc(O)c(O)c2)[C@H](OC(=O)c2cc(O)c(O)c(O)c2)C3)c2c(O)cc(O)cc2O[C@@H]1c1ccc(O)c(O)c1)c1cc(O)c(O)c(O)c1 [EC-(4β→8)-EC digallate, (−)-Epicatechin-(4β,8)-(−)-Epicatechin Digallate] | statistically significant increases in NO production | No significant NOx increase; | 74% | significant decline of cell-mediated MTT reduction | no effect on cell-mediated reduction of MTT | increased NO production | statically significant ability to modulate NO production | statistically significant ability to modulate NO production | 10 uM, sign. NOx | 1 and 10 uM, sign. NOx inc. | increased NO production | 73.55+/−7.08% | 44.6+/−16.6% | NO production [1, 11]: attenuation of NO production; decline in MTT reduction [3, 11]: 55%; MTT reduction ([3]; Experiment 2, chronic, 5 x 24 hours, 1 μM or 2 μM for EGC): decline in MTT reduction |
